Results taken from patent US5563169A, “Tricyclic heterocyclic compound” (Sankyo Company, Limited, priority 1991, dated 1996).

Test system: acyl-CoA: cholesterol acyltransferase (ACAT)
Test: ACAT inhibiting effect in vitro (rat liver microsome, method of Ross et al.)
Format: biochemical
Settings: rat liver microsome (Sprague-Dawley) enzyme fraction, 100 μM [14C]oleoyl-CoA, 37° C., 4 minutes; stated in words only
Procedure: ACAT inhibiting activities were determined according to the improved test method in vitro reported by Ross et al. [A. C. Ross etal., J. Biol. Chem., 259, 815-819(1984)].
According to the procedure described in A. C. Ross et al., J. Biol. Chem., 257, 2453-2459(1982), rat liver microsome was prepared from a rat of Sprague-Dawley strain fasted overnight to make an enzyme fraction. To a 0.15M potassium phosphate buffer solution (pH 7.4) containing 100 μM of [14C]oleoyl-CoA, 2 mM of dithiothreitol and 80 μM of bovine serum albumin were added 60-100 μg of the microsome fraction, and a 5 μl solution of a test compound in dimethylsulfoxide (2.5% v/v) was added to the above phosphate buffer solution to make 200 μl. The mixture was warmed at 37° C. for 4 minutes and then the enzyme reaction was stopped by adding 1 ml of ethanol under stirring. To the reaction mixture were added 2 ml of hexane. After stirring, 1 ml of a hexane solution was taken out and the solvent was evaporated in a stream of nitrogen. Cholesteryl oleate resulted from the enzyme reaction was separated by thin layer chromatography through silica gel using a 85:15:1 mixture of hexane, diethyl ether and acetic acid as a developing solvent. An ACAT activity was determined by measuring radioactivity and a inhibiting rate (%) was calculated by comparing a control activity with that of the test compound at given concentrations.

ACAT inhibiting activity, excellent inhibiting activity:
CC(C)c1cccc(C(C)C)c1NC(=O)C(C)C1c2ccccc2Oc2ccccc21 (stereo not drawn) [Example 16, N-[2,6-Bis(1-methylethyl)phenyl]-2-(9H-xanthen-9-yl)propanamide]
CCc1cccc(CC)c1NC(=O)CC1c2ccccc2Oc2ccccc21 [Example 2, N-(2,6-Diethylphenyl)-2-(9H-xanthen-9-yl)acetamide]
CCc1cccc(Sc2ccccc2)c1NC(=O)CC1c2ccccc2Oc2ccccc21 [Example 11, N-(2- Ethyl-6-phenylthiophenyl)-2-(9H-xanthen-9-yl)acetamide]
CCc1cccc(CSC)c1NC(=O)CC1c2ccccc2Oc2ccccc21 [Example 3, N-(2-Ethyl-6-methylthiomethylphenyl)-2-(9H-xanthen-9-yl)acetamide]
CCc1cccc(SC)c1NC(=O)CC1c2ccccc2Oc2ccccc21 [Example 9, N-(2-Ethyl-6-methylthiophenyl)-2-(9H-xanthen-9-yl)acetamide]
CCc1cccc(OC(C)C)c1NC(=O)CC1c2ccccc2Oc2ccccc21 [Example 25, N-(2-Ethyl-6-isopropoxyphenyl)-2-(9H-xanthen-9-yl)acetamide]
CC(C)c1cccc(C(C)C)c1NC(=O)CC1c2ccccc2Oc2ccccc21 [Example 1, N-[2,6-Bis (1-methylethyl)phenyl]-2-(9H-xanthen-9-yl)acetamide]
CC(C)c1cccc(C(C)C)c1NC(=O)CC1(C)c2ccccc2Oc2ccccc21 [Example 18-B, N-[2,6-bis(1-methylethyl)phenyl]-2-(9-methyl-9H-xanthen-9-yl)acetamide]
CCc1cccc(SC(C)C)c1NC(=O)CC1c2ccccc2Oc2ccccc21 [Example 10, N-(2-Ethyl-6-isopropylthiophenyl)-2-(9H-xanthen-9-yl)acetamide]
